Active and inactive are the calls of the source. The calls are words filed in the database; no cut-off is given here.
What was measured:
EB-3 = assay: Cytotoxicity against human EB-3 cells measured after 3 days; type: functional, cell-based; details: EB-3, 72 h
[1] = Cytotoxicity against human NCE-G 122 cells measured after 3 days; type: functional, cell-based; details: NCE-G 122, 72 h
MFM-223 = assay: Cytotoxicity against human MFM-223 cells measured after 3 days; type: functional, cell-based; details: MFM-223, 72 h
[2] = Cytotoxicity against human SUM52PE cells measured after 3 days; type: functional, cell-based; details: 72 h
[3] = Cytotoxicity against human KP-3L cells measured after 3 days; type: functional, cell-based; details: 72 h
HT = assay: Cytotoxicity against human HT cells measured after 3 days; type: functional, cell-based; details: 72 h
MCF-10A = assay: Cytotoxicity against human MCF-10A cells measured after 3 days; type: functional, cell-based; details: 72 h
[4] = Cytotoxicity against human OVCA 420 cells measured after 3 days; type: functional, cell-based; details: OVCA 420, 72 h
NALM-6 = assay: Cytotoxicity against human NALM-6 cells measured after 3 days; type: functional, cell-based; details: NALM-6, 72 h
OCI-AML-3 = assay: Cytotoxicity against human OCI-AML-3 cells measured after 3 days; type: functional, cell-based; details: OCI-AML-3, 72 h
EKVX = assay: Cytotoxicity against human EKVX cells after 8 days; type: functional, cell-based; details: 192 h
SU-DHL-5 = assay: Cytotoxicity against human SU-DHL-5 cells measured after 3 days; type: functional, cell-based; details: SU-DHL-5, 72 h
T47D = assay: Cytotoxicity against human T47D cells measured after 3 days; type: functional, cell-based; details: 72 h
[5] = Cytotoxicity against human NCE-G 130 cells measured after 3 days; type: functional, cell-based; details: NCE-G 130, 72 h
HMEC = assay: Cytotoxicity against HMEC cells measured after 8 days; type: functional, cell-based; details: Homo sapiens, 192 h
[6] = Cytotoxicity against human MOLP8 cells measured after 3 days; type: functional, cell-based; details: MOLP-8, 72 h
[7] = Cytotoxicity against human NCE-G 141 cells measured after 3 days; type: functional, cell-based; details: NCE-G 141, 72 h
[8] = Cytotoxicity against human HCC15 cells after 8 days; type: functional, cell-based; details: HCC15, 192 h
[9] = Cytotoxicity against human OVISE cells measured after 3 days; type: functional, cell-based; details: 72 h
AMO1 = assay: Cytotoxicity against human AMO1 cells measured after 3 days; type: functional, cell-based; details: AMO1, 72 h
[10] = Cytotoxicity against human VP229 cells measured after 3 days; type: functional, cell-based; details: VP229, 72 h
OVCAR-8 = assay: Cytotoxicity against human OVCAR-8 cells measured after 3 days; type: functional, cell-based; details: OVCAR-8, 72 h
[11] = target: T1, Bromodomain-containing protein 9 (Homo sapiens) (UniProt Q9H8M2); assay: Inhibition of BRD9 in human PC-9 cells assessed as reduction in ALDH1A1 gene expression at 0.5 uM preincubated with erlotinib for 8 days followed by compound addition and measured after 24 hrs by RNA sequencing analysis; type: cell-based
T1 sequence (whole entry): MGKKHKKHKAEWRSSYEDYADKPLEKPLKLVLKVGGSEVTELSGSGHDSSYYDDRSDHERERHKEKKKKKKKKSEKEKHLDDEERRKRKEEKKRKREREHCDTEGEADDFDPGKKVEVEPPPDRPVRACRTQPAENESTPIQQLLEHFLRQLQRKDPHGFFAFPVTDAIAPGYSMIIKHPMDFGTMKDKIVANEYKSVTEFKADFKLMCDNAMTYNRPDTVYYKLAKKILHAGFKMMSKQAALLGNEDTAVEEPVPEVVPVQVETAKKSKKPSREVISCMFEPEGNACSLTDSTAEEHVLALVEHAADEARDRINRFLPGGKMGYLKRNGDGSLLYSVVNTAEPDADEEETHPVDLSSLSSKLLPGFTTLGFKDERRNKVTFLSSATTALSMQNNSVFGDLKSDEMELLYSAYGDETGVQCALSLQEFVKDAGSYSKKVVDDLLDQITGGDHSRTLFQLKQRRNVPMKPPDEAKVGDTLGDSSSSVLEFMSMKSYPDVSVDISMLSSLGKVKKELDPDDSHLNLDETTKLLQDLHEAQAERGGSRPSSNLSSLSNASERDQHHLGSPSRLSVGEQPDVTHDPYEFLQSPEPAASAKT

DB = assay: Cytotoxicity against human DB cells measured after 3 days; type: functional, cell-based; details: 72 h
MX1 = assay: Cytotoxicity against human MX1 cells measured after 3 days; type: functional, cell-based; details: MX1, 72 h
[12] = Cytotoxicity against human Ci-1 cells measured after 3 days; type: functional, cell-based; details: Ci-1, 72 h
HEY = assay: Cytotoxicity against human HEY cells measured after 3 days; type: functional, cell-based; details: 72 h
[13] = Cytotoxicity against human NCE-G 140 cells measured after 3 days; type: functional, cell-based; details: NCE-G 140, 72 h
HCC1419 = assay: Cytotoxicity against human HCC1419 cells measured after 3 days; type: functional, cell-based; details: HCC1419, 72 h
HCC1143 = assay: Cytotoxicity against human HCC1143 cells measured after 3 days; type: functional, cell-based; details: HCC1143, 72 h
[14] = Cytotoxicity against human Ri-1 cells measured after 3 days; type: functional, cell-based; details: Ri-1, 72 h
U-266 = assay: Cytotoxicity against human U266B1 cells measured after 3 days; type: functional, cell-based; details: U-266, 72 h
[15] = Cytotoxicity against human PL-21 cells measured after 3 days; type: functional, cell-based; details: PL-21, 72 h
[16] = target: Bromodomain-containing protein 4 (Homo sapiens, UniProt O60885); assay: Binding affinity to BRD4 in human PC-9 cell lysate assessed as increase in thermal stabilization at 2 uM at 38 to 71 degreeC measured after 30 mins by CETSA; type: subcellular
HLE = assay: Cytotoxicity against human HLE cells measured after 3 days; type: functional, cell-based; details: 72 h
TOV112D = assay: Cytotoxicity against human TOV112D cells measured after 3 days; type: functional, cell-based; details: 72 h
OAW-28 = assay: Cytotoxicity against human OAW28 cells measured after 3 days; type: functional, cell-based; details: OAW-28, 72 h
HBL-100 = assay: Cytotoxicity against human HBL-100 cells measured after 3 days; type: functional, cell-based; details: HBL-100, 72 h
HCC1395 = assay: Cytotoxicity against human HCC1395 cells measured after 3 days; type: functional, cell-based; details: HCC1395, 72 h
NCI-H2030 = assay: Cytotoxicity against human NCI-H2030 cells measured after 8 days; type: functional, cell-based; details: NCI-H2030, 192 h
SNU-475 = assay: Cytotoxicity against human SNU-475 cells measured after 3 days; type: functional, cell-based; details: SNU-475, 72 h
[17] = Cytotoxicity against human NTERA-2 cells after 8 days; type: functional, cell-based; details: NTERA2, 192 h
[18] = Cytotoxicity against human HCC1428 cells measured after 8 days; type: functional, cell-based; details: HCC1428, 192 h
[19] = Cytotoxicity against human HCC89 cells measured after 3 days; type: functional, cell-based; details: HCC89, 72 h
Pfeiffer = assay: Cytotoxicity against human Pfeiffer cells measured after 8 days; type: functional, cell-based; details: 192 h
MDA-MB-231 = assay: Antiproliferative activity against human MDA-MB-231 cells assessed as reduction in colony formation upto 20 uM supplemented with fresh medium containing compound every 3 days for 9 days by MTT staining based clonogenic assay; type: functional, cell-based; details: time 9.0 day
NCI-H1299 = assay: Antiproliferative activity against human NCI-H1299 cells assessed as reduction in colony formation up to 20 uM supplemented with fresh medium containing compound every 3 days for 9 days by MTT staining based clonogenic assay; type: functional, cell-based; details: time 9.0 day
NB-4 = assay: Cytotoxicity against human NB-4 cells measured after 8 days; type: functional, cell-based; details: NB-4, 192 h

SMILES: C/C=C/Cn1cc(-c2cc(OC)c(C(=O)N3CCOCC3)cc2OC)c2cc(C)[nH]c2c1=O
- IC50 (EB-3): 5 µM
- IC50 [1]: 5 µM
- IC50 (MFM-223): 5 µM
- IC50 [2]: 5 µM
- IC50 [3]: 5 µM
- IC50 (HT): 5 µM
- IC50 (MCF-10A): 5 µM
- IC50 [4]: 5 µM
- IC50 (NALM-6): 5 µM
- IC50 (OCI-AML-3): 5 µM
- IC50 (EKVX): 2 µM
- IC50 (SU-DHL-5): 5 µM
- IC50 (T47D): 5 µM
- IC50 [5]: 5 µM
- IC50 (HMEC): 2 µM
- IC50 [6]: 5 µM
- IC50 [7]: 5 µM
- IC50 [8]: 2 µM
- IC50 [9]: 5 µM
- IC50 (AMO1): 5 µM
- IC50 [10]: 5 µM
- IC50 (OVCAR-8): 5 µM
- inhibition [11]: Active
- IC50 (DB): 5 µM
- IC50 (MX1): 5 µM
- IC50 [12]: 5 µM
- IC50 (HEY): 5 µM
- IC50 [13]: 5 µM
- IC50 (HCC1419): 5 µM
- IC50 (HCC1143): 5 µM
- IC50 [14]: 5 µM
- IC50 (U-266): 5 µM
- IC50 [15]: 5 µM
- Activity [16]: inactive
- IC50 (HLE): 5 µM
- IC50 (TOV112D): 5 µM
- IC50 (OAW-28): 5 µM
- IC50 (HBL-100): 5 µM
- IC50 (HCC1395): 5 µM
- IC50 (NCI-H2030): 2 µM
- IC50 (SNU-475): 5 µM
- IC50 [17]: 2 µM
- IC50 [18]: 2 µM
- IC50 [19]: 5 µM

SMILES: C/C=C/Cn1cc(-c2ccc(C(C)(C)O)cc2OC)c2cc[nH]c2c1=O
- IC50 (Pfeiffer): 6.95 µM
- Activity (MDA-MB-231): inactive
- Activity (NCI-H1299): inactive
- IC50 (NB-4): 20 µM
